Patent US4319028A, “7-(2-(Substituted benzoyl)amino)acetamido)cephalosporins” (Eli Lilly and Company, priority 1976, dated 1982)
In brackets after ≈: the same amount, converted by molar mass. Read-outs that look alike come from different tables or passages of the source.

Columns and labels:
Shigella sp. = assay: Antibiotic activity (MIC), Gradient Plate in vitro method, Shigella sp.; type: cell-based; conditions: read-out: Minimum Inhibitory Concentration
From the text: (§1) The antibiotic activity of the cephalosporin compounds of the present invention is illustrated by the data presented in Table I for representative compounds. The values in the table are the minimum inhibitory concentrations (MIC) for the test compounds against the indicated microorganisms. The MIC values were obtained in the Gradient Plate in vitro method for determining antibiotic activity.

Escherichia coli = assay: Antibiotic activity (MIC), Gradient Plate in vitro method, Escherichia coli; type: cell-based; conditions: read-out: Minimum Inhibitory Concentration
From the text: (§2) The values in the table are the minimum inhibitory concentrations (MIC) for the test compounds against the indicated microorganisms. The MIC values were obtained in the Gradient Plate in vitro method for determining antibiotic activity.

Klebsiella pneumoniae = assay: Antibiotic activity (MIC), Gradient Plate in vitro method, Klebsiella pneumoniae; type: cell-based; conditions: read-out: Minimum Inhibitory Concentration
From the text: as §2

Aerobacter Aerogenes = assay: Antibiotic activity (MIC), Gradient Plate in vitro method, Aerobacter Aerogenes; type: cell-based; conditions: Klebsiella aerogenes, read-out: Minimum Inhibitory Concentration
From the text: as §2

Salmonella heidelberg = assay: Antibiotic activity (MIC), Gradient Plate in vitro method, Salmonella heidelberg; type: cell-based; conditions: Salmonella enterica, read-out: Minimum Inhibitory Concentration
From the text: as §2

Pseudomonas Aeruginosa = assay: Antibiotic activity (MIC), Gradient Plate in vitro method, Pseudomonas Aeruginosa; type: cell-based; conditions: read-out: Minimum Inhibitory Concentration
From the text: as §2

Serratia marcescens = assay: Antibiotic activity (MIC), Gradient Plate in vitro method, Serratia marcescens; type: cell-based; conditions: read-out: Minimum Inhibitory Concentration
From the text: as §1

[1] = system: V41 (penicillin resistant Staphylococcus); assay: Antibiotic activity (MIC), Gradient Plate in vitro method, V41; type: cell-based; conditions: read-out: Minimum Inhibitory Concentration
From the text: as §1
(§3) ^1 Test organisms V41, V32, and V84 are penicillin resistant

[2] = system: V32 (penicillin resistant Staphylococcus); assay: Antibiotic activity (MIC), Gradient Plate in vitro method, V32; type: cell-based; conditions: read-out: Minimum Inhibitory Concentration
From the text: as §1, §3

[3] = system: X466 (methicillin resistant Staphylococcus); assay: Antibiotic activity (MIC), Gradient Plate in vitro method, X466; type: cell-based; conditions: read-out: Minimum Inhibitory Concentration
From the text: as §1, with “activity. […]” for “activity.”

[4] = system: V84 (penicillin resistant Staphylococcus); assay: Antibiotic activity (MIC), Gradient Plate in vitro method, V84; type: cell-based; conditions: read-out: Minimum Inhibitory Concentration
From the text: as §1, §3

[5] = Water solubility (inferred from low yield); type: physicochemical; conditions: inferred from low yield of aqueous isolation
Titration (pKa) = type: physicochemical; conditions: 66% dmf-34% h2o, titration (66% DMF-34% H2O)

SMILES	MIC (Shigella sp.)	MIC (Escherichia coli)	MIC (Klebsiella pneumoniae)	MIC (Aerobacter Aerogenes)	MIC (Salmonella heidelberg)	MIC (Pseudomonas Aeruginosa)	MIC (Serratia marcescens)	MIC ([1]; Staphylococcus)	MIC ([2]; Staphylococcus)	MIC [3]	MIC ([4]; Staphylococcus)	water solubility [5]	MIC ([1]; Gradient Plate in vitro, V41, penicillin resistant Staphylococcus)	MIC ([2]; Gradient Plate in vitro, V32, penicillin resistant Staphylococcus)	MIC ([4]; Gradient Plate in vitro, V84, penicillin resistant Staphylococcus)	pKa (Titration (pKa); first pKa, read-out: pKa (first value))	pKa (Titration (pKa); second pKa, read-out: pKa (second value))
Cc1nnc(SCC2=C(C(=O)O)N3C(=O)C(NC(=O)[C@H](NC(=O)c4ccc(O)cc4)c4ccc(O)cc4)C3SC2)s1 (stereo partly drawn) [Example 12, 7-[D-[2-(4-Hydroxyphenyl)-2-[(4-hydroxybenzoyl)amino]acetyl]-amino]-3-[[(5-methyl-1,3,4-thiadiazol-2-yl)thio]methyl]-3-cephem-4-carboxylic acid]	13.9 µg/mL (≈ 22.6 µM)	50 µg/mL (≈ 81.5 µM)	29.5 µg/mL (≈ 48.1 µM)	40 µg/mL (≈ 65.2 µM)	33 µg/mL (≈ 53.8 µM)	> 200 µg/mL	> 200 µg/mL	1 µg/mL (≈ 1.63 µM)	1 µg/mL (≈ 1.63 µM)	84 µg/mL (≈ 137 µM)	1 µg/mL (≈ 1.63 µM)	quite water soluble					
NC(=O)OCC1=C(C(=O)O)N2C(=O)C(NC(=O)C(NC(=O)c3cccc(O)c3O)c3ccccc3)C2SC1 [Example 20, 7-[D-[2-Phenyl-2-[(2,3-dihydroxybenzoyl)amino]acetyl]-amino]-3-carbamoyloxymethyl-3-cephem-4-carboxylic acid]	58 µg/mL (≈ 107 µM)	74 µg/mL (≈ 136 µM)	6.5 µg/mL (≈ 12 µM)	76 µg/mL (≈ 140 µM)	1 µg/mL (≈ 1.84 µM)	140 µg/mL (≈ 258 µM)	> 200 µg/mL			> 200 µg/mL			7.9 µg/mL (≈ 14.6 µM)	7.4 µg/mL (≈ 13.6 µM)	6.1 µg/mL (≈ 11.2 µM)	5.15	8.7
